Consider 4 compounds from US12427192B2, “Water soluble adjuvant and composition containing same” (Sumitomo Pharma Co., Ltd., priority 2019, dated 2025).

The target in test [1] is T1, human TLR7 (Homo sapiens, UniProt Q9NYK1).
T1 construct: expresses full-length human TLR7 and secretory alkaline phosphatase (SEAP) reporter gene; host or cells: HEK293 (TLR7/NF-κB/SEAPorter)
T1 sequence (Q9NYK1 27-1049): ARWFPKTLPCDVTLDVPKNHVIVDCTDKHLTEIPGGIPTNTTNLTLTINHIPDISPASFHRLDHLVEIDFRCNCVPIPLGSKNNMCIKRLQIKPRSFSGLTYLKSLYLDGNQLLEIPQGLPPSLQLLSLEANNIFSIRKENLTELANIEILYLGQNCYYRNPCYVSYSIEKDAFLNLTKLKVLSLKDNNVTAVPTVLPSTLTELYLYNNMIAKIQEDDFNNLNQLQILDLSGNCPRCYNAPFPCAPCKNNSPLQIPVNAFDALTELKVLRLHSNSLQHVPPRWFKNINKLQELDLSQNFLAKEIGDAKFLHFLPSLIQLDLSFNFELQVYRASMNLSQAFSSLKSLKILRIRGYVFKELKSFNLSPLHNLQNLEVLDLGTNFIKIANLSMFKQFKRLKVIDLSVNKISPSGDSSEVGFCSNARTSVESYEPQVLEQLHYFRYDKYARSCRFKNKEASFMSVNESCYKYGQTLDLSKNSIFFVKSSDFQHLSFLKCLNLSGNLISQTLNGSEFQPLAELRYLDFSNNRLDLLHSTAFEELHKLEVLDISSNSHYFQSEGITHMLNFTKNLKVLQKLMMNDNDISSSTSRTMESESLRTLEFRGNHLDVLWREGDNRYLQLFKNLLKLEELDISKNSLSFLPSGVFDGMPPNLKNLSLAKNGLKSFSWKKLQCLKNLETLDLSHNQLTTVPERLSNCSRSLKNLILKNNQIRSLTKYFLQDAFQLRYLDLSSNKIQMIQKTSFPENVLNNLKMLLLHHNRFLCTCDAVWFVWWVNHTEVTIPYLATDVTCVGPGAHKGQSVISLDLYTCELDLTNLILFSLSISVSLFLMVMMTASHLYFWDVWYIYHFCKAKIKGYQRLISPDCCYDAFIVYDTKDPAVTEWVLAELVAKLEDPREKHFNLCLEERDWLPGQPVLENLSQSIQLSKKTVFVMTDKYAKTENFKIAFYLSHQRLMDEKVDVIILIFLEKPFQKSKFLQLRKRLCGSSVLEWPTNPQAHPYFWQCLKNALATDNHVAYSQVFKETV
Kind of test: Human TLR7 reporter gene assay (HEK-Blue hTLR7 cell line), Test 22. The test is classed as cell-based. The note with it: method of Test 1. From the text:
(§1) TLR7/NF-κB/SEAPorter™ HEK293 cell line (Imgenex Corporation) is a stably co-transfected cell line which expresses full-length human TLR7 and secretory alkaline phosphatase (SEAP) reporter gene under the transcriptional regulation of an NF-κB response element. The TLR7 expression of the cell line has been already tested by flow cytometry. Transfectants with stable expression were selected using the antibiotic blasticidin and Geneticin. TLR signaling leads to the translocation of NF-κB and the activation of the promoter results in expression of the SEAP gene. TLR7-specific activation was assessed by determining the level of SEAP produced following 24-hour incubation of the cells at 37° C. with each compound prepared in Examples and Reference examples in the presence of 0.1% (v/v) dimethylsulfoxide (DMSO). The human TLR7 activity for the present compound was assessed by human TLR7 reporter gene assay, and the results are shown in Tables 3 and 4 as the compound concentration which produced half of the maximal level of SEAP induction (EC50)
According to the method of Test 1, human TLR7 reporter gene assay was done with the following samples, and the result was shown in the table below. The cell used herein was HEK-Blue™ hTLR7 cell line (Invivogen). HEK-Blue™ hTLR7 cell line is a stably co-transfected cell line which expresses full-length human TLR7 and secretory SEAP reporter gene under the transcriptional regulation of an NF-κB response element. The TLR7 expression of the cell line has been already tested by RT-PCR. Transfectants with stable expression were selected using the antibiotic blasticidin and Zeocin.

Test [2] deals with T1, human TLR7. Kind of test: Human TLR7 reporter gene assay (TLR7/NF-κB/SEAPorter HEK293 cell line), Tests 1 and 21. The test is classed as cell-based. The note with it: Test 21; according to the method of Test 1; read-out: human EC50.
From the text: Human TLR7 Reporter Gene Assay
as §1
According to the method of Test 1, human TLR7 reporter gene assay was done with the following samples, and the result was shown in the table below.
(In general: A reporter such as luciferase makes a cellular process visible.)

Test [3] relates to HLA-A*02:01 transgenic mouse. The experiment in a line: Test 10: in vivo adjuvant activity, cocktail vaccine b, IFNγ ELISPOT. The conditions noted are these: added to cocktail vaccine b; 0.4 nmol per body, twice; FIG. 8 and 9. The method, then:
Evaluation of In Vivo Adjuvant Activity in HLA-A*02:01 Transgenic Mouse
The in vivo adjuvant activity of the compound of Example 11 was evaluated in the following procedure. To cocktail vaccine b like Test 9 was added the compound prepared in Example 11 to prepare a vaccine. The vaccine was administered to a HLA-A*02:01 transgenic mouse, and the adjuvant activity of the vaccine was evaluated by the method of testing antigen-specific CTL induction.
Specifically, Compound of formula 4 and Peptide SEQ ID No. 3 were dissolved in DMSO, and then diluted with water for injection to concentrations of Compound of formula 4 of 3 mg/mL and Peptide SEQ ID No. 3 of 2.25 mg/mL. The diluted peptide solution was mixed and emulsified with an equal volume of Montanide ISA 51 VG to prepare cocktail vaccine b. Cocktail vaccine b was injected to mice intradermally at the tail base area in an amount for administering 300 μg of Compound of formula 4 per body and 225 μg of Peptide SEQ ID No. 3 per body. […] Then, after removal of the supernatant from the wells, stained spots on the ELISPOT plate were counted.

In turn, `CCC[C@@H](CO)Nc1nc(N)nc(C)c1Cc1ccc(C(=O)NCCOCCOCCOCCOCCOCCOCCO)cc1OC` [Example 5, 4-[(2-amino-4-{[(2S)-1-hydroxypentan-2-yl]amino}-6-methylpyrimidin-5-1)methyl]-N-(20-hydroxy-3,6,9,12,15,18-hexaoxaicosan-1-yl)-3-methoxybenzamide] showed an EC50 at human TLR7 [1] of 7270 nM.

On human TLR7 [1], `CCC[C@@H](CO)Nc1nc(N)nc(C)c1Cc1ccc(C(=O)OCCOCCOCCOCCOC)cc1OC` [Example 6, 2,5,8,11-tetraoxatridecan-13-yl 4-[(2-amino-4-{[(2S)-1-hydroxypentan-2-yl]amino}-6-methylpyrimidin-5-yl)methyl]-3-methoxybenzoate] gave an EC50 of 119 nM. Same read-out and setting: under `CCCCCNc1nc(N)nc(C)c1Cc1ccc(COCCOCCOCCOCCOC)cc1OC` [Example 7, 5-{[2-methoxy-4-(2,5,8,11,14-pentaoxapentadecan-1-yl)phenyl]methyl}-6-methyl-N^4-pentylpyrimidine-2,4-diamine] stands 71 nM. In the case of `CCCCCNc1nc(N)nc(C)c1Cc1ccc(CN(CCOCCOCCOCCO)CCOCCOCCOCCO)cc1OC` [Example 11, 12-[(4-{[2-amino-4-methyl-6-(pentylamino)pyrimidin-5-yl]methyl}-3-methoxyphenyl)methyl]-3,6,9,15,18,21-hexaoxa-12-azatricosan-1,23-diol], the half-maximal effective concentration (EC50) on human TLR7 [2] stood at 774 nM. For the same compound, the “CTL counts responsive to Peptide SEQ ID No. 1 or SEQ ID No. 4 compared with adding no compound” value in test [3] was “more”.

In general, EC50 refers to the midpoint of the concentration-response curve.
